Measurements from US4800199A, “3-[2-thiazoloamino]-8-oxo-7-substituted-5-thia-1-a zabicyclo-[4.2.0]oct-2-ene-2-carboxylic acid and salts thereof and diphenylmethyl esters thereof” (American Cyanamid Company, priority 1986, dated 1989).
Values after ≈ are worked out from the molar mass of the structure shown.

Key:
Experiment in all cases: In vitro antibacterial activity, Mueller-Hinton agar dilution
Assay type in all cases: cell-based
[1] = system: Streptococcus faecalis ATCC 29212; details: Enterococcus faecalis, ATCC29212, read-out: Minimal Inhibitory Concentration
Text: (§1) The results of this test on representative compounds of this invention appear in Table I.

[2] = system: Staphylococcus aureus ATCC 25923; details: ATCC25923, read-out: Minimal Inhibitory Concentration
Text: as §1

[3] = system: Staphylococcus aureus LL No. 45; details: LLNO.45, read-out: Minimal Inhibitory Concentration
Text: as §1

Proteus morganii K79-25 = details: Morganella morganii, K7925, read-out: Minimal Inhibitory Concentration
Text: as §1

Saccharomyces Y 15 = details: Y15, read-out: Minimal Inhibitory Concentration
Text: as §1

Candida albicans CA 300 = details: CA300, read-out: Minimal Inhibitory Concentration
Text: as §1

[4] = system: Staphylococcus epidermidis ATCC 12228; details: ATCC12228, read-out: Minimal Inhibitory Concentration
Text: as §1

Escherichia coli 311 = details: read-out: Minimal Inhibitory Concentration
Text: as §1

[5] = system: Staphylococcus aureus LL No. 14; details: LLNO.14, read-out: Minimal Inhibitory Concentration
Text: as §1

[6] = system: Micrococcus lutea PC 1001; details: PC1001, read-out: Minimal Inhibitory Concentration
Text: as §1

[7] = system: Bacillus subtilis ATCC 6633; details: ATCC6633, read-out: Minimal Inhibitory Concentration
Text: as §1

Enterococcus OSU 75-1 = details: OSU751, read-out: Minimal Inhibitory Concentration
Text: as §1

Enterococcus SM 77-15 = details: SM7715, read-out: Minimal Inhibitory Concentration
Text: as §1

[8] = system: Citrobacter freundii K81-28; details: K8128, read-out: Minimal Inhibitory Concentration
Text: as §1

[9] = system: Staphylococcus aureus LL No. 27; details: LLNO.27, read-out: Minimal Inhibitory Concentration
Text: as §1

Acinetobacter STFD 79-17 = details: STFD7917, read-out: Minimal Inhibitory Concentration
Text: as §1

Salmonella QHC 77-3 = details: QHC773, read-out: Minimal Inhibitory Concentration
Text: as §1

[10] = system: Streptococcus mutans BHI (b); details: read-out: Minimal Inhibitory Concentration
Text: as §1

[11] = system: Staphylococcus aureus Smith; details: read-out: Minimal Inhibitory Concentration
Text: as §1

[12] = system: Streptococcus mutans ATCC 27352-1; details: ATCC27352, read-out: Minimal Inhibitory Concentration
Text: as §1

Serratia Tul 78-15 = details: TUL7815, read-out: Minimal Inhibitory Concentration
Text: as §1

Bacillus cereus LL No. 4 = details: LLNO.4, read-out: Minimal Inhibitory Concentration
Text: as §1

[13] = system: Mycobacterium smegmatis ATCC 607; details: Mycolicibacterium smegmatis, ATCC607, read-out: Minimal Inhibitory Concentration
Text: as §1

[14] = system: Escherichia coli ATCC 25922; details: ATCC25922, read-out: Minimal Inhibitory Concentration
Text: as §1

[15] = system: Enterobacter cloacae K79-16; details: K7916, read-out: Minimal Inhibitory Concentration
Text: as §1

[16] = system: Streptococcus sanguis G-9B (a); details: read-out: Minimal Inhibitory Concentration
Text: as §1

[17] = system: Staphylococcus epidermidis CMC 83-56; details: CMC8356, read-out: Minimal Inhibitory Concentration
Text: as §1

Klebsiella pneumoniae AD = details: read-out: Minimal Inhibitory Concentration
Text: as §1

[18] = system: Pseudomonas aeruginosa ATCC 27853; details: ATCC27853, read-out: Minimal Inhibitory Concentration
Text: as §1

[19] = system: Pseudomonas aeruginosa 12-4-4; details: 1244, read-out: Minimal Inhibitory Concentration
Text: as §1

Compound | MIC [1] | MIC [2] | MIC [3] | MIC (Proteus morganii K79-25) | MIC (Saccharomyces Y 15) | MIC (Candida albicans CA 300) | MIC [4] | MIC (Escherichia coli 311) | MIC [5] | MIC [6] | MIC [7] | MIC (Enterococcus OSU 75-1) | MIC (Enterococcus SM 77-15) | MIC [8] | MIC [9] | MIC (Acinetobacter STFD 79-17) | MIC (Salmonella QHC 77-3) | MIC [10] | MIC [11] | MIC [12] | further results
CCOC(=O)c1csc(N[C@@H]2C(=O)N3C(C(=O)O)=C(COC(C)=O)CS[C@H]23)n1 [Example 2] | 128 µg/mL (≈ 299 µM) | 1 µg/mL (≈ 2.34 µM) | 1 µg/mL (≈ 2.34 µM) | > 512 µg/mL | 128 µg/mL (≈ 299 µM) | > 512 µg/mL | 0.5 µg/mL (≈ 1.17 µM) | 512 µg/mL (≈ 1200 µM) | 1 µg/mL (≈ 2.34 µM) | 4 µg/mL (≈ 9.36 µM) | 4 µg/mL (≈ 9.36 µM) | 128 µg/mL (≈ 299 µM) | 128 µg/mL (≈ 299 µM) | 512 µg/mL (≈ 1200 µM) | 4 µg/mL (≈ 9.36 µM) | > 512 µg/mL | > 512 µg/mL | ≤ 0.25 µg/mL | 1 µg/mL (≈ 2.34 µM) | ≤ 0.25 µg/mL | MIC (Serratia Tul 78-15): > 512 µg/mL; MIC (Bacillus cereus LL No. 4): 64 µg/mL (≈ 150 µM); MIC [13]: 128 µg/mL (≈ 299 µM); MIC [14]: > 512 µg/mL; MIC [15]: > 512 µg/mL; MIC [16]: 4 µg/mL (≈ 9.36 µM); MIC [17]: 0.5 µg/mL (≈ 1.17 µM); MIC (Klebsiella pneumoniae AD): 512 µg/mL (≈ 1200 µM); MIC [18]: > 512 µg/mL; MIC [19]: > 512 µg/mL
CC(=O)OCC1=C(C(=O)O)N2C(=O)[C@@H](Nc3nc(-c4ccccc4)cs3)[C@H]2SC1 [Example 3, (6R-trans)-3-[(Acetyloxy)methyl]-8-oxo-7-[(4-phenyl-2-thiazolyl)amino]-5-thia-1-azabicyclo[4.2.0]oct-2-ene-2-carboxylic acid] | 256 µg/mL (≈ 593 µM) | 8 µg/mL (≈ 18.5 µM) | 4 µg/mL (≈ 9.27 µM) | > 512 µg/mL | 256 µg/mL (≈ 593 µM) | > 512 µg/mL | 16 µg/mL (≈ 37.1 µM) | > 512 µg/mL | 4 µg/mL (≈ 9.27 µM) | 8 µg/mL (≈ 18.5 µM) | 8 µg/mL (≈ 18.5 µM) | 256 µg/mL (≈ 593 µM) | 256 µg/mL (≈ 593 µM) | > 512 µg/mL | 16 µg/mL (≈ 37.1 µM) | > 512 µg/mL | > 512 µg/mL | 0.5 µg/mL (≈ 1.16 µM) | 8 µg/mL (≈ 18.5 µM) | 8 µg/mL (≈ 18.5 µM) | MIC (Serratia Tul 78-15): > 512 µg/mL; MIC (Bacillus cereus LL No. 4): 128 µg/mL (≈ 297 µM); MIC [13]: 256 µg/mL (≈ 593 µM); MIC [14]: > 512 µg/mL; MIC [15]: > 512 µg/mL; MIC [16]: 1 µg/mL (≈ 2.32 µM); MIC [17]: 8 µg/mL (≈ 18.5 µM); MIC (Klebsiella pneumoniae AD): > 512 µg/mL; MIC [18]: > 512 µg/mL; MIC [19]: > 512 µg/mL
